Reference: patent EP0676201B1, “Use of a riminophenazine for treating MDR resistance” (priority 1994, dated 1995)
≈ marks a conversion by molar mass, not a printed value. Where two headings read alike, the source gives them in different places.

What was measured:
H69/P = assay: MTT assay, 7-day exposure: sensitivity of parent cells to chemotherapeutic agents with or without MDR inhibitor (Example 1); assay type: cell-based, human; conditions: for fold sensitivity compared with the chemotherapeutic agent without the MDR inhibitor, B669 / fold sensitivity compared with the chemotherapeutic agent without the MDR inhibitor, Clofazimine (B663) / fold sensitivity compared with the chemotherapeutic agent without the MDR inhibitor, CsA: value in parenthesis; for fold sensitivity compared with the chemotherapeutic agent without the MDR inhibitor, CsA: with CsA 5 µg/ml; for IC50: Homo sapiens, 168 h
From the text: (§1) A further test using no MDR inhibitor was used as a standard.

H69/LX4 = assay: MTT assay, 7-day exposure: sensitivity of resistant (MDR) cells to chemotherapeutic agents with or without MDR inhibitor (Example 1); assay type: cell-based; conditions: Homo sapiens, 168 h
From the text: as §1
The cell lines used were human small cell lung cancer cell line HP69/P and a multi-drug resistant (MDR) sub-line H69/LX4, both of which were supplied by the MRC Clinical Oncology and Radiotherapeutics Unit, Hills Road, Cambridge, England. The maintenance of the cell lines and drug response assays was done as described by Twentyman et al in British Journal of Cancer Volume 65 pages 335-340. The H69/LX4 line was originally described by Twentyman et al in British Journal of Cancer Volume 53, pages 529-637 (1986).
The data in parenthesis represents fold sensitivity compared with the chemotherapeutic agent without the MDR inhibitor.

K562/MMB = assay: MTT assay, 7-day exposure to riminophenazines alone or with fixed doxorubicin or vinblastine (Example 4); assay type: cell-based; conditions: Homo sapiens, K562, 168 h
From the text: A third cell line (562/MMB) used was a MDR leukemia cell line selected in vitro by progressive exposure to increasing concentrations of vinblastine in order to increase P-glycoprotein expression. […] This cell line expresses high levels of P-glycoprotein as determined by flowcytometry using the monoclonal antibody (MRK 16) against this molecule.
The effects were examined of a 7-day exposure of selected compounds on the sensitivity of the cell line (K562/MMB) to the standard chemotherapeutic agents doxorubicin and vinblastine, using the MTT assay.
The cells were seeded at 1 x 10^4 cells per well in 96 well microlitre plates in a volume of 200 µl of RPMI 1640 medium containing 10 % fetal calf serum and incubated with doxorubicin (12.5 ng/ml) or vinblastine (3 ng/ml). The amounts of MDR modulators used were 0.03, 0.06, 0.125, 0.5, 1.0 and 2.0 µg/ml.
After incubation at 37 °C for 7 days, 20 µl MTT (i.e. 3-[4,5-dimethylthiazol-2-yl]2,5-diphenyl-tetrazolium bromide) at 5 mg/ml was added to each well and the plates incubated for a further 4 hours. The cells were washed with phosphate buffered saline and the intracellular formazan crystals solubilized with dimethylsulphoxide, and the absorbency measured spectrophotometrically at a test wavelength of 540 nm and a reference wavelength of 620 nm.

[1] = H69/P, with Clofazimine 1 µg/ml
[2] = read-out: IC50 of chemotherapeutic agent, MDR INHIBITOR CsA
[3] = H69/P, no MDR inhibitor, 7 day exposure, mean of 2 - 4 experiments, read-out: IC50 of chemotherapeutic agent, MDR INHIBITOR None
[4] = H69/P, with B669 0.5 µg/ml, 7 day exposure, read-out: IC50 of chemotherapeutic agent, MDR INHIBITOR B669
[5] = H69/P, with Clofazimine 1 µg/ml, 7 day exposure, read-out: IC50 of chemotherapeutic agent, MDR INHIBITOR Clofazimine (B663)
[6] = H69/LX4, no MDR inhibitor, 7 day exposure, mean of 2 - 4 experiments, read-out: IC50 of chemotherapeutic agent, MDR INHIBITOR None
[7] = H69/LX4, with B669 0.5 µg/ml, 7 day exposure, read-out: IC50 of chemotherapeutic agent, MDR INHIBITOR B669
[8] = H69/LX4, with Clofazimine 1 µg/ml, 7 day exposure, read-out: IC50 of chemotherapeutic agent, MDR INHIBITOR Clofazimine (B663)
[9] = read-out: IC50 of chemotherapeutic agent, MDR INHIBITOR B669
[10] = read-out: IC50 of chemotherapeutic agent, MDR INHIBITOR Clofazimine (B663)
[11] = in the presence of doxorubicin (12 ng/ml), read-out: IC 50 of riminophenazine, Doxorubicin
[12] = in the presence of vinblastine (3 ng/ml), read-out: IC 50 of riminophenazine, Vinblastine
[13] = riminophenazine alone, mean of 2 experiments, read-out: IC 50 of riminophenazine, None
[14] = read-out: IC50 of chemotherapeutic agent, MDR INHIBITOR None

IC50 (K562/MMB; [11]) [µg/mL]	IC50 (K562/MMB; [12]) [µg/mL]	IC50 (K562/MMB; [13]) [µg/mL]	Structure (SMILES)	fold sensitivity compared with the chemotherapeutic agent without the MDR inhibitor, B669 (H69/P; H69/P, with B669 0.5 µg/ml) [fold]	fold sensitivity compared with the chemotherapeutic agent without the MDR inhibitor, Clofazimine (B663) (H69/P; [1]) [fold]	fold sensitivity compared with the chemotherapeutic agent without the MDR inhibitor, CsA (H69/P; H69/P) [fold]	IC50 (H69/P; [2]) [µg/mL]	IC50 (H69/P; [3]) [µg/mL]	IC50 (H69/P; [4]) [µg/mL]	IC50 (H69/P; [5]) [µg/mL]	IC50 (H69/LX4; [2]) [µg/mL]	IC50 (H69/LX4; [6]) [µg/mL]	IC50 (H69/LX4; [7]) [µg/mL]	IC50 (H69/LX4; [8]) [µg/mL]	further results
			COc1cccc2c1C(=O)c1c(O)c3c(c(O)c1C2=O)C[C@@](O)(C(C)=O)C[C@@H]3O[C@H]1C[C@H](N)[C@H](O)[C@H](C)O1 [Daunorubicin]	1.2	1.0	1.0	0.002 (≈ 0.00379 µM)	0.002 (≈ 0.00379 µM)	0.0016 (≈ 0.00303 µM)	0.002 (≈ 0.00379 µM)	0.004 (≈ 0.00758 µM)	0.036 (≈ 0.0682 µM)	0.015 (≈ 0.0284 µM)	0.009 (≈ 0.0171 µM)	
			CC[C@]1(O)C[C@@H]2CN(CCc3c([nH]c4ccccc34)[C@@](C(=O)OC)(c3cc4c(cc3OC)N(C)[C@H]3[C@@](O)(C(=O)OC)[C@H](OC(C)=O)[C@]5(CC)C=CCN6CC[C@]43[C@@H]65)C2)C1 [Vinblastine]	1.1	1.3	1.4	0.0007 (≈ 0.000863 µM)	0.001 (≈ 0.00123 µM)	0.0009 (≈ 0.00111 µM)	0.0008 (≈ 0.000986 µM)	0.008 (≈ 0.00986 µM)	0.12 (≈ 0.148 µM)	0.008 (≈ 0.00986 µM)	0.008 (≈ 0.00986 µM)	
			CO[C@@]12[C@H](COC(N)=O)C3=C(C(=O)C(C)=C(N)C3=O)N1C[C@@H]1N[C@@H]12 [Mitomycin C]				0.009 (≈ 0.0269 µM)				0.08 (≈ 0.239 µM)		0.04 (≈ 0.12 µM)	0.06 (≈ 0.179 µM)	IC50 (H69/P; [9]): 0.01 µg/mL (≈ 0.0299 µM); IC50 (H69/P; [10]): 0.01 µg/mL (≈ 0.0299 µM)
0.159	0.07	0.285 (≈ 0.568 µM)	CC1(C)CC(N=c2cc3n(-c4ccccc4)c4ccccc4nc-3cc2Nc2ccccc2)CC(C)(C)N1 [Compound B3962, N,5-bis(phenyl)-3,5-dihydro-3-[(2',2',6',6'-tetramethyl-4-piperidyl)imino]-2-phenazinamine]												
			O=P1(N(CCCl)CCCl)NCCCO1 (centres unmarked) [Cyclophosphamide]	1.0	0.9	1.1	1.6 (≈ 6.13 µM)				1.7 (≈ 6.51 µM)				IC50 (H69/P; [9]): 1.8 µg/mL (≈ 6.89 µM); IC50 (H69/P; [10]): 1.9 µg/mL (≈ 7.28 µM); IC50 (H69/P; [14]): 1.8 µg/mL (≈ 6.89 µM); IC50 (H69/LX4; [9]): 1.4 µg/mL (≈ 5.36 µM); IC50 (H69/LX4; [10]): 1.6 µg/mL (≈ 6.13 µM); IC50 (H69/LX4; [14]): 1.6 µg/mL (≈ 6.13 µM)
0.181	< 0.05	0.333 (≈ 0.55 µM)	CC1(C)CC(N=c2cc3n(-c4cccc(Cl)c4)c4ccc(Cl)cc4nc-3cc2Nc2cccc(Cl)c2)CC(C)(C)N1 [Compound B4123, N,5-bis(3-chlorophenyl)-8-chloro-3,5-dihydro-3[(2,2',6',6'-tetramethyl-4-piperidyl)-imino]-2-phenazinamine]												
0.278	0.095	0.335 (≈ 0.524 µM)	CC1(C)CC(N=c2cc3n(-c4ccc(Cl)c(Cl)c4)c4ccccc4nc-3cc2Nc2ccc(Cl)c(Cl)c2)CC(C)(C)N1 [Compound B4100]												
			COc1cccc2c1C(=O)c1c(O)c3c(c(O)c1C2=O)C[C@@](O)(C(=O)CO)C[C@@H]3O[C@H]1C[C@H](N)[C@H](O)[C@H](C)O1 [Doxorubicin]	1.0	0.8	1.0	0.003 (≈ 0.00552 µM)	0.003 (≈ 0.00552 µM)	0.003 (≈ 0.00552 µM)	0.004 (≈ 0.00736 µM)	0.01 (≈ 0.0184 µM)	0.11 (≈ 0.202 µM)	0.016 (≈ 0.0294 µM)	0.01 (≈ 0.0184 µM)	
0.155	0.058	0.272 (≈ 0.464 µM)	CC(C)c1ccc(Nc2cc3nc4ccccc4n(-c4ccc(C(C)C)cc4)c-3cc2=NC2CC(C)(C)NC(C)(C)C2)cc1 [Compound B4158, N,5-bis(4-isopropylphenyl)-3,5-dihydro-3-[(2',2',6',6'-tetramethyl-4-piperidyl)-imino]-2-phenazinamine]												

Structure (SMILES)	IC50 (K562/MMB; [11]) [µg/mL]	IC50 (K562/MMB; [12]) [µg/mL]	IC50 (K562/MMB; [13]) [µg/mL]	fold sensitivity compared with the chemotherapeutic agent without the MDR inhibitor, B669 (H69/P; H69/P, with B669 0.5 µg/ml) [fold]	fold sensitivity compared with the chemotherapeutic agent without the MDR inhibitor, Clofazimine (B663) (H69/P; [1]) [fold]	fold sensitivity compared with the chemotherapeutic agent without the MDR inhibitor, CsA (H69/P; H69/P) [fold]	IC50 (H69/P; [2]) [µg/mL]	IC50 (H69/P; [3]) [µg/mL]	IC50 (H69/P; [4]) [µg/mL]	IC50 (H69/P; [5]) [µg/mL]	IC50 (H69/LX4; [2]) [µg/mL]	IC50 (H69/LX4; [6]) [µg/mL]	IC50 (H69/LX4; [7]) [µg/mL]	IC50 (H69/LX4; [8]) [µg/mL]	further results
CC1(C)CC(N=c2cc3n(-c4cccc(C(F)(F)F)c4)c4ccccc4nc-3cc2Nc2cccc(C(F)(F)F)c2)CC(C)(C)N1 [Compound B4126, N,5-bis(3-trifluoromethyl-4-phenyl)-3,5-dihydro-3-[(2',2',6',6'-tetramethyl-4-piperidyl)-imino]-2-phenazinamine]	0.246	0.071	0.316 (≈ 0.496 µM)												
